Reference: US12673942B2, “Azabicyclyl-substituted heterocycles as fungicides” (Bayer Aktiengesellschaft, priority 2020, dated 2026)

Legend:
[1] = system: Pyricularia oryzae; assay: microbe, parasite or virus in culture; type: cell-based; conditions: 120 h, read-out: efficacy (inhibition of fungal growth)
[2] = system: Alternaria alternata; assay: Alternaria alternata in vitro cell test; type: cell-based; conditions: 120 h, 20 ppm of active ingredient, liquid culture, 5 days incubation, read-out: efficacy (inhibition of fungal growth)
Protocol: (§1) • Solvent: […] Fungicides were solubilized in DMSO and the solution used to prepare the required range of concentrations. The final concentration of DMSO used in the assay was ≤1%. A spore suspension of Alternaria alternata was prepared and diluted to the desired spore density. Fungicides were evaluated for their ability to inhibit spore germination and mycelium growth in liquid culture assay. The compounds were added in the desired concentration to the culture medium with spores. After 5 days incubation, fungi-toxicity of compounds was determined by spectrometric measurement of mycelium growth. Inhibition of fungal growth was determined by comparing the absorbance values in wells containing the fungicides with the absorbance in control wells without fungicides.

[3] = Measurement of Log P values by HPLC on reversed phase columns (EEC directive 79/831 Annex V.A8); type: physicochemical; conditions: method [a]: LC-UV, acidic range, 0.1% formic acid in water and acetonitrile as eluent
Protocol: Measurement of Log P values as provided herein was performed according to EEC directive 79/831 Annex V.A8 by HPLC (High Performance Liquid Chromatography) on reversed phase columns with the following methods: • ^[a] Log P value is determined by measurement of LC-UV, in an acidic range, with 0.1% formic acid in water and acetonitrile as eluent (linear gradient from 10% acetonitrile to 95% acetonitrile). • ^[b] Log P value is determined by measurement of LC-UV, in a neutral range, with 0.001 molar ammonium acetate solution in water and acetonitrile as eluent (linear gradient from 10% acetonitrile to 95% acetonitrile). • ^[c] Log P value is determined by measurement of LC-UV, in an acidic range, with 0.1% phosphoric acid and acetonitrile as eluent (linear gradient from 10% acetonitrile to 95% acetonitrile).
If more than one Log P value is available within the same method, all the values are given and separated by “+”. […]

[4] = system: Fusarium culmorum; assay: Fusarium culmorum in vitro cell test; type: cell-based; conditions: 96 h, 20 ppm of active ingredient, liquid culture, 4 days incubation, read-out: efficacy (inhibition of fungal growth)
Protocol: • Solvent: DMSO • Culture medium: 14.6 g anhydrous D-glucose (VWR), 7.1 g Mycological Peptone (Oxoid), 1.4 g granulated Yeast Extract (Merck), QSP 1 liter • Inoculum: spore suspension
Fungicides were solubilized in DMSO and the solution used to prepare the required range of concentrations. The final concentration of DMSO used in the assay was ≤1%.
A spore suspension of Fusarium culmorum was prepared and diluted to the desired spore density.
Fungicides were evaluated for their ability to inhibit spore germination and mycelium growth in liquid culture assay. The compounds were added in the desired concentration to the culture medium with spores. After 4 days incubation, fungi-toxicity of compounds was determined by spectrometric measurement of mycelium growth. Inhibition of fungal growth was determined by comparing the absorbance values in wells containing the fungicides with the absorbance in control wells without fungicides.

[5] = system: Colletotrichum lindemuthianum; assay: Colletotrichum lindemuthianum in vitro cell test; type: cell-based; conditions: 144 h, 20 ppm of active ingredient, liquid culture, 6 days incubation, read-out: efficacy (inhibition of fungal growth)
Protocol: as §1, with “1%.” for “≤1%.”, “Colletotrichum lindemuthianum” for “Alternaria alternata”, “6” for “5”

[6] = system: Septoria tritici; assay: Septoria tritici in vitro cell test; type: cell-based; conditions: Zymoseptoria tritici, 168 h; 20 ppm of active ingredient; liquid culture, 7 days incubation; read-out: efficacy (inhibition of fungal growth)
Protocol: • Solvent: DMSO • Culture medium: 1 g KH2PO4 (VWR), 1 g K2HPO4 (VWR), 0.5 g Urea (VWR), 3 g KNO3 (Prolabo), 10 g saccharose (VWR), 0.5 g MgSO4, 7H2O (Sigma), 0.07 g CaCl2, 2H2O (Prolabo), 0.2 mg MnSO4, H2O (Sigma), 0.6 mg CuSO4, 5H2O (Sigma), 7.9 mg ZnSO4, 7H2O (Sigma), 0.1 mg H3BO3 (Merck), 0.14 mg NaMoO4, 2H2O (Sigma), 2 mg thiamine (Sigma), 0.1 mg biotine (VWR), 4 mg FeSO4, 7H2O (Sigma), QSP 1 liter • Inoculum: spore suspension Fungicides were solubilized in DMSO and the solution used to prepare the required range of concentrations. The final concentration of DMSO used in the assay was 1%. A spore suspension of Septoria tritici was prepared and diluted to the desired spore density. Fungicides were evaluated for their ability to inhibit spore germination and mycelium growth in liquid culture assay. The compounds were added in the desired concentration to the culture medium with spores. […] Inhibition of fungal growth was determined by comparing the absorbance values in wells containing the fungicides with the absorbance in control wells without fungicides.

Structure (SMILES) | inhibition at 20 ppm [1] [%] | inhibition at 20 ppm [2] [%] | chromatographic logP [3] | inhibition at 20 ppm [4] [%] | inhibition at 20 ppm [5] [%] | inhibition at 20 ppm [6] [%]
C=Cc1ccc(C[C@@H]2CON=C(c3c(Oc4cccc(C(F)(F)F)c4)nnc4ccccc34)N2)c(Cl)c1 (racemic) [Compound I-009] | ≥ 70 | ≥ 70 | 4.44 | ≥ 70 | ≥ 70 | ≥ 70
Cc1ccc(C[C@@H]2CON=C(c3c(Oc4cccc(Br)c4F)cnc4ccccc34)N2)c(C)c1 (racemic) [Compound I-019] | ≥ 70 | ≥ 70 | 4.33 | ≥ 70 | ≥ 70 | ≥ 70
Cc1ccc(CC2CON=C(c3c(Oc4cccc(C5CC5)c4F)nnc4ccccc34)N2)c(C)c1 (racemic) [Compound I-006, 3-(3-cyclopropyl-2-fluorophenoxy)-4-[(5RS)-5-(2,4-dimethylbenzyl)-5,6-dihydro-4H-1,2,4-oxadiazin-3-yl]cinnoline] | ≥ 70 | ≥ 70 | 4.37 | ≥ 70 | ≥ 70 | ≥ 70
